Earlier results on one compound are cited in US11124883B2, “Method for inhibiting metal corrosion using a benzimidazole-containing composition” (priority 2017, dated 2021).

For the data set the following is noted: at 20° C., according to DrugBank.

Regarding `c1ccc2[nH]cnc2c1` [unsubstituted benzimidazole, benzimidazole], the water solubility entry is “about 20 g/L”.
